Test results taken from patent US20220187282A1, “CARDIOMYOCYTE PROLIFERATION” (The Council of the Queensland Institute of Medical Research, priority 2019, published 2022).
Read-outs that look alike come from different tables or passages of the source.

Legend:
Assay type in all cases: biochemical
kinases [1] = molecular target: kinases (Homo sapiens, UniProt Q8WXR4); conditions: MYO3B FRET-Lantha SP; Test Conc(μM) 1
kinases [2] = molecular target: kinases (Homo sapiens, UniProt P21709); conditions: EPHA1 FRET-Z-Lyte SP; Test Conc(μM):ATP Conc(μM) 1:25
kinases [3] = molecular target: kinases (Homo sapiens, UniProt P49137); conditions: MAPKAPK2 FRET-Z-Lyte SP; Test Conc(μM):ATP Conc(μM) 1:5
kinases [4] = molecular target: kinases (Homo sapiens, UniProt P29317); conditions: EPHA2 FRET-Z-Lyte SP; Test Conc(μM):ATP Conc(μM) 1:75
kinases [5] = molecular target: kinases (Homo sapiens, UniProt Q13131)
kinases (Homo sapiens, UniProt Q13131), sequence (Q13131 whole entry): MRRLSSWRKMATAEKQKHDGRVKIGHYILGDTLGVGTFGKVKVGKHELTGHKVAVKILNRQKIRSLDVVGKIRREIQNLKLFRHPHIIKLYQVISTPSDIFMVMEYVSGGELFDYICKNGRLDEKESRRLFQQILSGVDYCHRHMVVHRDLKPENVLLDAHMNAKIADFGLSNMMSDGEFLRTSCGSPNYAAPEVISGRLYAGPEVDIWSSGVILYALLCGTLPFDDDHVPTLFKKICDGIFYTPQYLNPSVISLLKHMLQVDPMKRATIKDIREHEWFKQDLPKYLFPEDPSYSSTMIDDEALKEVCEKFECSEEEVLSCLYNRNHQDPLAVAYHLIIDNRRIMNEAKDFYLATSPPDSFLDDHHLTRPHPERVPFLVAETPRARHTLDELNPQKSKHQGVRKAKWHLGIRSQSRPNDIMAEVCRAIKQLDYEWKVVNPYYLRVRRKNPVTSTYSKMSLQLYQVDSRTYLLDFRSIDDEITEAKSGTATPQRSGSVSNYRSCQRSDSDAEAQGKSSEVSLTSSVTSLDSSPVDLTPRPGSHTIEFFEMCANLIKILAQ

kinases [6] = molecular target: kinases (Homo sapiens, UniProt Q9HBY8); conditions: SGK2 FRET-Z-Lyte SP; Test Conc(μM):ATP Conc(μM) 1:50
kinases [7] = molecular target: kinases (Homo sapiens, UniProt P80192); conditions: MAP3K9 (MLK1) FRET-Z-Lyte SP; Test Conc(μM):ATP Conc(μM) 1:75
kinases [8] = molecular target: kinases (Homo sapiens, UniProt Q9BZL6); conditions: PRKD2 (PKD2) Z-Lyte SP; Test Conc(μM):ATP Conc(μM) 1:25
kinases [9] = molecular target: kinases (Homo sapiens, UniProt P33981); conditions: TTK FRET-Lantha SP; Test Conc(μM) 1
kinases [10] = molecular target: kinases (Homo sapiens, UniProt P27037); conditions: ACVR2A FRET-Lantha SP; Test Conc(μM) 1
kinases (Homo sapiens, UniProt P27037), sequence (P27037 20-513): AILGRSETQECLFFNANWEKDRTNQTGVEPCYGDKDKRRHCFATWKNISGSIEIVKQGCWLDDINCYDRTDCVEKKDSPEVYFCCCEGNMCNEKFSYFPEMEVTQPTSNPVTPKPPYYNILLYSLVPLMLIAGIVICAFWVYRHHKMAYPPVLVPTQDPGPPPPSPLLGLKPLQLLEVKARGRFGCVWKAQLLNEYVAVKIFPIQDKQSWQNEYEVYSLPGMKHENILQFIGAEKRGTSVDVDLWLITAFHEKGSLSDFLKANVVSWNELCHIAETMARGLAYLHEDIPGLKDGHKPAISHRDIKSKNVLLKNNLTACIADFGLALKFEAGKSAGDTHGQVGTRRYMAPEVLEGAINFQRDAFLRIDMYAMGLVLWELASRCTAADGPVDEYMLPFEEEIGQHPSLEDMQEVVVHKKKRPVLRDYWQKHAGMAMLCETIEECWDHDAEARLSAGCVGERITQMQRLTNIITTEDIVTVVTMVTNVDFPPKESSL

kinases [11] = molecular target: kinases (Homo sapiens, UniProt O00444); conditions: PLK4 FRET-Lantha SP; Test Conc(μM) 1
kinases [12] = molecular target: kinases (Homo sapiens, UniProt P45984)
kinases (Homo sapiens, UniProt P45984), sequence (P45984 whole entry): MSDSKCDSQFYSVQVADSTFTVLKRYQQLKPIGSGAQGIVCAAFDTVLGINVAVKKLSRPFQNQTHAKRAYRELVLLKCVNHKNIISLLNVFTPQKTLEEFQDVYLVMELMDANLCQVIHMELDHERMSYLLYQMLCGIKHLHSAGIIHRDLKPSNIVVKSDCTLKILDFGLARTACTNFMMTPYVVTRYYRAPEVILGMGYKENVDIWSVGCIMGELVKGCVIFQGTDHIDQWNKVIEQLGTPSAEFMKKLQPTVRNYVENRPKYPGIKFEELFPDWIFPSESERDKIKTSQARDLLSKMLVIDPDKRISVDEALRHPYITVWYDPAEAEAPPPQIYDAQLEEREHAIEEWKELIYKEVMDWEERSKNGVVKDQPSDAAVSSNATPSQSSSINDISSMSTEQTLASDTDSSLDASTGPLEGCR

kinases [13] = molecular target: kinases (Homo sapiens, UniProt Q15139); conditions: PRKD1 (PKC mu) Z-Lyte SP; Test Conc(μM):ATP Conc(μM) 1:10
kinases [14] = molecular target: kinases (Homo sapiens, UniProt Q9UK32); conditions: RPS6KA6 (RSK4) FRET-Z-Lyte SP; Test Conc(μM):ATP Conc(μM) 1:25
kinases [15] = molecular target: kinases (Homo sapiens, UniProt P53778); conditions: MAPK12 (p38 gamma) Z-Lyte SP; Test Conc(μM):ATP Conc(μM) 1:10
kinases [16] = molecular target: kinases (Homo sapiens, UniProt P53355); conditions: DAPK1 FRET-Adapta SP; Test Conc(μM):ATP Conc(μM) 1:5
kinases [17] = molecular target: kinases (Homo sapiens, UniProt P41240); conditions: CSK FRET-Z-Lyte SP; Test Conc(μM):ATP Conc(μM) 1:10
kinases [18] = molecular target: kinases (Homo sapiens, UniProt Q15303); conditions: ERBB4 (HER4) *Mn* Z-Lyte SP; Test Conc(μM):ATP Conc(μM) 1:5
kinases (Homo sapiens, UniProt Q15303), sequence (Q15303 26-1308): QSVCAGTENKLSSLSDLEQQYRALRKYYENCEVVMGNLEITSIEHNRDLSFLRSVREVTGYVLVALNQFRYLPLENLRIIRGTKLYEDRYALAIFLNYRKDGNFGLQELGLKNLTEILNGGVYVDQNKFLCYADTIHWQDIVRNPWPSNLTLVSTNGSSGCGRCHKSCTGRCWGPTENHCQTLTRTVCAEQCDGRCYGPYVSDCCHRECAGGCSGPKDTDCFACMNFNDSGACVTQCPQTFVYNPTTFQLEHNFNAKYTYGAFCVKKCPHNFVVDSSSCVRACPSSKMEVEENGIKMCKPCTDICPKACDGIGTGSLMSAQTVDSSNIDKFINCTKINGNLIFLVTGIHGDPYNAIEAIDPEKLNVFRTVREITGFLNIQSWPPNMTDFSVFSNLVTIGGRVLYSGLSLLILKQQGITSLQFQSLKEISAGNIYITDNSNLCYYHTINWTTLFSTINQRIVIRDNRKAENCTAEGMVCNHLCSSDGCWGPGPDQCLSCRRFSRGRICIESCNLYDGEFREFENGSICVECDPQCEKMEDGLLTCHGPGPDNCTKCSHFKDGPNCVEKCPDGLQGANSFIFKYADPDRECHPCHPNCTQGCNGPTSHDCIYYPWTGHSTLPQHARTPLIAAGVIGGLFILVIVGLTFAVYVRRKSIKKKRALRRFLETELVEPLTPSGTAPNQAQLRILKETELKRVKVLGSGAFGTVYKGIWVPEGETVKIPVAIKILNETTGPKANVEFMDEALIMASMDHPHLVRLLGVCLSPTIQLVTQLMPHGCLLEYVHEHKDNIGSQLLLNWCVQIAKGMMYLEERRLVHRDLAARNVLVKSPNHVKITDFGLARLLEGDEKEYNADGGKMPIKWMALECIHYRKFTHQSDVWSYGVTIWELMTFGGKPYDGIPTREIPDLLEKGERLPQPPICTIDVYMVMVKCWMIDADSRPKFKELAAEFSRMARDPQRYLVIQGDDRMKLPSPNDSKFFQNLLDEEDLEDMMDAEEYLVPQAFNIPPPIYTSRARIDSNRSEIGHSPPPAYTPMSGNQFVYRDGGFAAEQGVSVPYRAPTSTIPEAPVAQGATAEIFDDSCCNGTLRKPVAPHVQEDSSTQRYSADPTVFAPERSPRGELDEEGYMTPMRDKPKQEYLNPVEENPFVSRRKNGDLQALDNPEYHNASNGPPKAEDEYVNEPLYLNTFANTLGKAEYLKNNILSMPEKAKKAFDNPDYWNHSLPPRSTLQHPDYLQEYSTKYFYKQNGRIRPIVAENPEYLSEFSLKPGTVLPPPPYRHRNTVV

kinases [19] = molecular target: kinases (Homo sapiens, UniProt P23443); conditions: RPS6KB1 (p70S6K) Z-Lyte SP; Test Conc(μM):ATP Conc(μM) 1:10
kinases [20] = molecular target: kinases (Homo sapiens, UniProt P42338)
kinases (Homo sapiens, UniProt P42338), sequence (P42338 whole entry): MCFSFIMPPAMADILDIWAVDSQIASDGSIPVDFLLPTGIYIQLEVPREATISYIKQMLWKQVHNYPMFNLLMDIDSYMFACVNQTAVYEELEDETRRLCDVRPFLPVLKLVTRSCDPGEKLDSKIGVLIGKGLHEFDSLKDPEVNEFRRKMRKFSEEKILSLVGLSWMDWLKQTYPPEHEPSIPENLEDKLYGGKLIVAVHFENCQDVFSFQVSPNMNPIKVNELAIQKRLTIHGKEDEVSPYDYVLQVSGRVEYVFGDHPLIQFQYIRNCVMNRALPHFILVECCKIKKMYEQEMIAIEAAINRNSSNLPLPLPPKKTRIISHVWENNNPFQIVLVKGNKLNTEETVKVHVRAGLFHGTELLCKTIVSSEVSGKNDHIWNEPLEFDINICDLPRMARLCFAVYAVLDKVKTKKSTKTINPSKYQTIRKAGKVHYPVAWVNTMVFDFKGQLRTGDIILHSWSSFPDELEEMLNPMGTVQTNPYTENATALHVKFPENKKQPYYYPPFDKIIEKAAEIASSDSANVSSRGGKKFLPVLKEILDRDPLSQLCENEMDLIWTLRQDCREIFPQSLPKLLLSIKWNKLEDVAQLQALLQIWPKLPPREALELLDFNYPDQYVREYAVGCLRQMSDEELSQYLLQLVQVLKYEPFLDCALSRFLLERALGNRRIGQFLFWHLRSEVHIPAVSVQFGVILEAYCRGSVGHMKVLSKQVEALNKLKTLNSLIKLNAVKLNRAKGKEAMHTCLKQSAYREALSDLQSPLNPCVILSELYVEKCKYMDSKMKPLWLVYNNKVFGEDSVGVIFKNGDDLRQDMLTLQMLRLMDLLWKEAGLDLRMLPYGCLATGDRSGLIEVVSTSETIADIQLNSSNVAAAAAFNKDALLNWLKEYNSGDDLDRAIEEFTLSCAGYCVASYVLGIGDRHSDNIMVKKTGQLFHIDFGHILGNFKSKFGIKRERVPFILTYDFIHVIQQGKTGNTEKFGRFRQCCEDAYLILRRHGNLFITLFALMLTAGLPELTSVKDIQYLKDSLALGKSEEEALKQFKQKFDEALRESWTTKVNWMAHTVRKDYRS

kinases [21] = molecular target: kinases (Homo sapiens, UniProt Q9NYL2); conditions: ZAK FRET-Lantha SP; Test Conc(μM) 1
kinases [22] = molecular target: kinases (Homo sapiens, UniProt Q96NX5); conditions: CAMK1G FRET-Z-Lyte SP
kinases [23] = molecular target: kinases (Homo sapiens, UniProt Q13153); conditions: PAK1 FRET-Z-Lyte SP; Test Conc(μM):ATP Conc(μM) 1:50
kinases (Homo sapiens, UniProt Q13153), sequence (Q13153 whole entry): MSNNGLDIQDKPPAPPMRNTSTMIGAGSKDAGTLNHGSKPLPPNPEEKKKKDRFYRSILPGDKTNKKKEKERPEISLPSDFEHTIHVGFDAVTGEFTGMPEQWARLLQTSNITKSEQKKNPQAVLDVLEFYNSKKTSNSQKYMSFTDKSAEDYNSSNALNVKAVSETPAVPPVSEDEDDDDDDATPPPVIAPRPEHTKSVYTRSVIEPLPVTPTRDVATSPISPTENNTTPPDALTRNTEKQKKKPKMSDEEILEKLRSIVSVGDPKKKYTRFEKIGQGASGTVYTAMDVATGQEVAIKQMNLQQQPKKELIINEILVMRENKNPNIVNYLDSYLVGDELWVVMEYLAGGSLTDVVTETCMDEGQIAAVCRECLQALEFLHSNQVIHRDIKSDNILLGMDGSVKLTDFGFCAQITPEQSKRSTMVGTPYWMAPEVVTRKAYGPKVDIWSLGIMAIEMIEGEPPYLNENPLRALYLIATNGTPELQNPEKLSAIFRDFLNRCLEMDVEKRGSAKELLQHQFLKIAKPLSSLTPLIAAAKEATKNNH

kinases [24] = molecular target: kinases (Homo sapiens, UniProt Q9BTU6); conditions: PI4K2A *Mn* FRET-Adapta SP; Test Conc(μM):ATP Conc(μM) 1:10
kinases (Homo sapiens, UniProt Q9BTU6), sequence (Q9BTU6 whole entry): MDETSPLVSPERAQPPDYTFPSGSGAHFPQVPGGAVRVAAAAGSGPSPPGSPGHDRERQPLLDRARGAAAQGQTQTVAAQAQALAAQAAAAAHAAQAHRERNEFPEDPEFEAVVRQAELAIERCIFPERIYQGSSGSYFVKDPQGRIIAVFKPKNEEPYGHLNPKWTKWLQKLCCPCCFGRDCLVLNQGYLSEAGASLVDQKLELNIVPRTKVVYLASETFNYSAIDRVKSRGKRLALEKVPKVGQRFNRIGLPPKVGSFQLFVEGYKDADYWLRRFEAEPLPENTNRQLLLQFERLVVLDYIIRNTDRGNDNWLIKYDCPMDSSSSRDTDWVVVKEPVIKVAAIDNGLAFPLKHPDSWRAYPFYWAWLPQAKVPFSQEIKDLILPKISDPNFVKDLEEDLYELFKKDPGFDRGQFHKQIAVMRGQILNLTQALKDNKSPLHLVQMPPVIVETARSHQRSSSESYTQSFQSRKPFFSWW

kinases [25] = molecular target: kinases (Homo sapiens, UniProt P43403); conditions: ZAP70 *Mn* FRET-Z-Lyte SP; Test Conc(μM):ATP Conc(μM) 1:5
kinases [26] = molecular target: kinases (Homo sapiens, UniProt Q8TDC3); conditions: BRSK1 (SAD1) FRET-Z-Lyte SP; Test Conc(μM):ATP Conc(μM) 1:25
kinases [27] = molecular target: kinases (Homo sapiens, UniProt Q9UBE8); conditions: NLK FRET-Lantha SP; Test Conc(μM) 1
[28] = AMPK (A1/B1/G2) FRET-Lantha SP, Test Conc(μM) 1
[29] = AMPK (A1/B1/G3) FRET-Lantha SP, Test Conc(μM) 1
[30] = AMPK (A1/B2/G1) FRET-Lantha SP, Test Conc(μM) 1
[31] = AMPK A1/B1/G1 FRET-Z-lyte SP, Test Conc(μM):ATP Conc(μM) 1:50
[32] = AMPK A1/B2/G2 FRET-Z-Lyte SP, Test Conc(μM):ATP Conc(μM) 1:10
[33] = AMPK A1/B2/G3 FRET-Z-Lyte SP, Test Conc(μM):ATP Conc(μM) 1:10
[34] = MAPK9 (JNK2) Cascade Z-Lyte SP, Test Conc(μM):ATP Conc(μM) 1:100
[35] = MAPK9 (JNK2) FRET-Lantha SP, Test Conc(μM) 1
[36] = PIK3CB FRET-Adapta SP, Test Conc(μM):ATP Conc(μM) 1:150
[37] = PIK3CB/PIK3R2 FRET-Adapta SP, Test Conc(μM):ATP Conc(μM) 1:10

Compound	Mean Inhib (%) (kinases [1])	Mean Inhib (%) (kinases [2])	Mean Inhib (%) (kinases [3])	Mean Inhib (%) (kinases [4])	Mean Inhib (%) (kinases [5]; [28])	Mean Inhib (%) (kinases [5]; [29])	Mean Inhib (%) (kinases [5]; [30])	Mean Inhib (%) (kinases [5]; [31])	Mean Inhib (%) (kinases [5]; [32])	Mean Inhib (%) (kinases [5]; [33])	Mean Inhib (%) (kinases [6])	Mean Inhib (%) (kinases [7])	Mean Inhib (%) (kinases [8])	Mean Inhib (%) (kinases [9])	Mean Inhib (%) (kinases [10])	Mean Inhib (%) (kinases [11])	Mean Inhib (%) (kinases [12]; [34])	Mean Inhib (%) (kinases [12]; [35])	Mean Inhib (%) (kinases [13])	Mean Inhib (%) (kinases [14])	also measured
Cc1ccc(NC(=O)c2ccnc(N3CCOCC3)c2)cc1Nc1ccnc(N2CC(C)OC(C)C2)n1 (centres unmarked) [compound 3]	3.9%	6.7%	−2.1%	10.8%	5.6%	−10.3%	0.0%	0.3%	12.2%	20.8%	1.2%	1.3%	1.5%	6.5%	3.8%	0.2%	17.9%	5.3%	6.5%	−9.0%	Mean Inhib (%) (kinases [15]): 5.1%; Mean Inhib (%) (kinases [16]): 1.4%; Mean Inhib (%) (kinases [17]): 10.1%; Mean Inhib (%) (kinases [18]): 0.8%; Mean Inhib (%) (kinases [19]): 4.7%; Mean Inhib (%) (kinases [20]; [36]): −5.2%; Mean Inhib (%) (kinases [20]; [37]): 8.0%; Mean Inhib (%) (kinases [21]): 3.1%; Mean Inhib (%) (kinases [22]; Test Conc(μM):ATP Conc(μM) 1:300): 5.8%; Mean Inhib (%) (kinases [23]): −1.9%; Mean Inhib (%) (kinases [24]): −2.4%; Mean Inhib (%) (kinases [25]): 8.1%; Mean Inhib (%) (kinases [26]): 2.2%; Mean Inhib (%) (kinases [27]): −3.5%
Cc1cc(Oc2ccnc(Nc3ccc(S(N)(=O)=O)cc3)c2)c(-c2ccccn2)nc1C [compound 65]	4.1%	55.3%	9.2%	30.7%	1.3%	−1.2%	2.3%	−0.6%	−0.5%	−2.4%	−1.3%	3.4%	21.2%	−2.0%	71.5%	6.1%	12.1%	5.2%	11.3%	−0.7%	Mean Inhib (%) (kinases [15]): 4.1%; Mean Inhib (%) (kinases [16]): −2.6%; Mean Inhib (%) (kinases [17]): 6.4%; Mean Inhib (%) (kinases [18]): 3.4%; Mean Inhib (%) (kinases [19]): 1.0%; Mean Inhib (%) (kinases [20]; [36]): −2.3%; Mean Inhib (%) (kinases [20]; [37]): −4.7%; Mean Inhib (%) (kinases [21]): 78.3%; Mean Inhib (%) (kinases [22]; Test Conc(μM):ATP Conc(μM) 0.25): −3.7%; Mean Inhib (%) (kinases [23]): 14.1%; Mean Inhib (%) (kinases [24]): −2.9%; Mean Inhib (%) (kinases [25]): 0.0%; Mean Inhib (%) (kinases [26]): 4.7%; Mean Inhib (%) (kinases [27]): 88.8%
